From paper PMC5666006, “Combating virulence of Gram-negative bacilli by OmpA inhibition” (Scientific Reports, 2017)
Where a SMILES comes first, the peptide text is derived from it. [ ]: non-standard residue; d: D form.

What was measured:
[1] = AOA-2 pharmacokinetics in serum; conditions: mouse, in vivo, ip, 10 mg/kg
E. coli ATCC 25922 [2] = experiment: Bacterial cytotoxicity on A549 cells, MTT assay; assay type: cell-based; conditions: E. coli ATCC 25922 pretreated with 0.25 or 0.5 mg/mL, 24 h
Protocol: (§1) Bacterial cytotoxicity. […] Prior the evaluation of bacterial cytotoxicity, we firstly removed viable bacteria from A549 cells cultures and washed A549 cells five times with pre-warmed PBS. Then, cellular viability was assessed as indicated above.

A. baumannii ATCC 17978 [3] = experiment: Bacterial cytotoxicity on A549 cells, MTT assay; assay type: cell-based; conditions: A. baumannii ATCC 17978 pretreated with 0.25 or 0.5 mg/mL, 24 h
Protocol: as §1

P. aeruginosa PaO1 [4] = experiment: Bacterial cytotoxicity on A549 cells, MTT assay; assay type: cell-based; conditions: P. aeruginosa PaO1 pretreated with 0.25 or 0.5 mg/mL, 24 h
Protocol: as §1

A. baumannii ATCC 17978 [5] = experiment: Adhesion of bacteria to A549 cells; assay type: cell-based; conditions: 2 h
Protocol: Subsequently, infected A549 cells were washed five times with pre-warmed PBS and lysed with 0.5% Triton X-100. Diluted lysates were plated onto blood agar (Blood-Agar Columbia, Becton Dickinson Microbiology Systems, USA) and incubated at 37 °C for 24 h for enumeration of developed colonies and then the determination of the number of bacteria that attached to A549 cells.
Figure S3. OmpA inhibitor hexapeptides reduce A. baumannii adherence to A549 cells. A549 cells were infected with 10^8 CFU/mL of ATCC 17978 strain during 2 h in presence of AOA-1, […]
of bacterial adherence was calculated as follow: [(number of colonies of treated A549 cells with peptide / number of colonies of non-treated cells) x 100]. Representative results of three independent experiments are shown; data are means ± SEM. *P<0.05: between untreated and […]

E. coli OmpA = target: T1, E. coli OmpA (Escherichia coli, UniProt P0A910); experiment: NMR detection of binding (1H, STD, PFG diffusion); conditions: AOA-2 750 μM, OmpA 8 μM, 1 mM Triton X-100, pH 7.3, 25 °C
T1 construct: A recombinant 37 kDa polypeptide fragment containing the transmembrane and periplasmatic domains of the E. coli OmpA protein; purchased NovoPro (China)
Protocol: A recombinant 37 kDa polypeptide fragment containing the transmembrane and periplasmatic domains of the E. coli OmpA protein was purchased from NovoPro (China). OmpA samples contained Triton X-100 to mimic the membrane environment.
All NMR experiments were recorded at 25 °C on a Bruker Avance 800 MHz spectrometer equipped with a cryoprobe.
Saturation transfer difference[38] (STD) experiments were obtained using a pseudo-2D pulse sequence for the interleaved acquisition of on-resonance and off-resonance spectra. Total saturation time was 3 seconds. Suppression of the residual water signal was achieved by excitation sculpting.
Diffusion NMR experiments were performed using the LED pulse sequence[40] with gradient lengths of 3 ms and a diffusion delay of 110 ms. The total inter-scan delay was 4.5 s.

[6] = Peptide toxicity, MTT assay; assay type: cell-based, human; conditions: human, A549 cells
Protocol: Human type II pneumocyte cell line A549 derived from a human lung carcinoma were obtained from American Type Culture Collection (LGC, UK) and were grown in DMEM medium (Invitrogen, Spain) supplemented with 10% heat-inactivated fetal bovine serum, vancomycin (50 μg/mL), gentamicin (20 μg/mL), amphotericin B (0.25 μg/mL) (Invitrogen, Spain) and 1% HEPES (Invitrogen, Spain) in a humidified incubator, 5% CO2 at 37 °C. A549 cells were routinely passaged every 3–4 days. The cells were seeded 24 h in 96-well plates for cellular viability assay, and in 24 well plates for adhesion and immnunofluorescence assays.
Peptide toxicity. […] Prior the evaluation of the peptides cytotoxicity, A549 cells were washed three times with prewarmed PBS. Then, peptides cytotoxicity was initially assessed quantitatively by monitoring the mitochondrial reduction activity using the MTT assay as described previously. The percentage of […] was calculated from the optical density (OD) as follow: [(OD of treated cells / mean OD of non-treated cell) × 100].
Table S2. Percentages of A549 cellular viability assessed through mitochondrial reduction
activity (MTT assay) in presence of anti-OmpA hexapeptides and control peptides (SXV4 and
COL). COL: colistin. ND: not determined.
Peptides 0.25 mg/mL 0.5 mg/mL 1 mg/mL 5 mg/mL

E. coli ATCC 25922 [7] = assay type: cell-based
Protocol: (§2) In the initial screening, the bactericidal activity of the synthetic peptides and their toxicity on human lung epithelial cells (A549) were evaluated.
(§3) Table S1. MICs of the six hexapeptides for A. baumannii and E. coli.
(§4) Peptides P. aeruginosa PaO1
(§5) MIC: minimal inhibitory concentration

A. baumannii ATCC 17978 [8] = assay type: cell-based
Protocol: as §2, §3, §4, §5

P. aeruginosa PaO1 [9] = assay type: cell-based
Protocol: as §2, §3, §4, §5

E. coli ATCC 25922 [10] = experiment: Time kill curves; assay type: cell-based; conditions: 0.25–1 mg/mL
Excerpt: (§6) Figure S4. Time kill curves of A. baumannii ATCC 17978, P. aeruginosa PaO1, and E. coli
(§7) (also on this page, place not known: Bacterial concentration ( Log CFU/mL) Bacterial concentration ( Log CFU/mL) Bacterial concentration ( Log CFU/mL))

A. baumannii ATCC 17978 [11] = experiment: Time kill curves; assay type: cell-based; conditions: 0.25–1 mg/mL
Excerpt: as §6, §7

P. aeruginosa PaO1 [12] = experiment: Time kill curves; assay type: cell-based; conditions: 0.25–1 mg/mL
Excerpt: as §6, §7

C57BL/6 female mice = experiment: AOA-2 in vivo toxicity (Reed and Munch method); set-up: species or system mouse
Protocol: (§8) Animals were housed in regulation cages with food and water ad libitum. This study was carried out in strict accordance with the recommendations in the Guide for the Care and Use of Laboratory Animals[41]. The protocol was approved by the Committee on the Ethics of Animal Experiments of the University Hospital of Virgen del Rocío, Seville (2012PI/238). All surgery was performed under sodium thiopental anaesthesia, and all efforts were made to minimize suffering.
(§9) The Reed and Munch method was used[42]. […] LD50 value was determined using the Probit method.
(§10) 20, 40, 80 or 160 mg/kg. Mice survival was monitored for a one week and lethal doses (LD) 0,
(§11) 50 and 100 were calculated.

[13] = AOA-2 in vivo toxicity (Reed and Munch method); set-up: species or system mouse; conditions: female, C57BL/6, mouse, in vivo, ip, mice, single i.p. dose, groups of six, survival one week
Protocol: as §8, §9, §10, §11

T1 sequence (P0A910 22-346): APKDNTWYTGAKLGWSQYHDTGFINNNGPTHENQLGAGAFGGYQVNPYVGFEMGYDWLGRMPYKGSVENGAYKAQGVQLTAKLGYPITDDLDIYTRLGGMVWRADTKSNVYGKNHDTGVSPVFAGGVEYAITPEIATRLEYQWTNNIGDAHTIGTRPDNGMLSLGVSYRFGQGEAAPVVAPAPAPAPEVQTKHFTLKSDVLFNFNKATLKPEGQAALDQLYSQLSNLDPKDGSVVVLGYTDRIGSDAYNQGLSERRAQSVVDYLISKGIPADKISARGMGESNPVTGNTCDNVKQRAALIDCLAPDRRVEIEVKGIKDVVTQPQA

## N=C(N)NCCC[C@@H]1NC(=O)[C@H]2CCCN2C(=O)[C@H](Cc2c[nH]c3ccccc23)NC(=O)[C@H](CCCNC(=N)N)NC(=O)[C@H]2CCCN2C(=O)[C@H](Cc2c[nH]c3ccccc23)NC1=O [AOA-2] (cyclo(RW[dP]RW[dP]))
[1]
  half-life: 56 min
E. coli ATCC 25922 [2]
  A549 cell death induced by bacteria (in words): failure
A. baumannii ATCC 17978 [3]
  A549 cell death induced by bacteria (in words): prevented cell death
P. aeruginosa PaO1 [4]
  A549 cell death induced by bacteria (in words): prevented cell death
A. baumannii ATCC 17978 [5]; 0.25 mg/mL, 10^8 CFU/mL
  reduction in the adherence of A. baumannii to A549 cells: more than 60%
A. baumannii ATCC 17978 [5]; 0.25, 0.5, 1 mg/mL
  ability to reduce A. baumannii adherence to A549 cells, rank among synthesized peptides (in words): greatest ability to reduce the A. baumannii adherence to A549 cells
E. coli OmpA
  binding to OmpA by NMR (in words): interacting with OmpA
[6]
  viability at 48 h, 250 µg/mL: 98.09 ± 0.27%
  viability at 48 h, 500 µg/mL: 98.33 ± 0.4%
  viability at 48 h, 1000 µg/mL: 98.48 ± 0.55%
E. coli ATCC 25922 [7]
  MIC: > 500 µg/mL
A. baumannii ATCC 17978 [8]
  MIC: > 500 µg/mL
P. aeruginosa PaO1 [9]
  MIC: > 500 µg/mL
E. coli ATCC 25922 [10]
  bacteriostatic activity (in words): intermediate behaviour
A. baumannii ATCC 17978 [11]
  bacteriostatic activity (in words): poor bacteriostatic activity
P. aeruginosa PaO1 [12]
  bacteriostatic activity (in words): relevant bacteriostatic activity
C57BL/6 female mice; i.p.
  dose without any evidence of toxicity: ≤ 40 mg/kg
C57BL/6 female mice; single i.p. dose, groups of six, survival one week
  LD100: 160 mg/kg
[13]; Probit method
  LD50 at 168 h: 85 mg/kg
[13]; read-out: LD0 (maximum tolerated dose)
  MTD at 168 h: 40 mg/kg
